US20070251020A1, “Fungicidal compositions and methods of using the same” (priority 2006, published 2007)

Legend:
Type in all cases: cell-based
[1] = system: Aspergillus niger; test: Screening for anti-fungal activity in mineral-salts glucose medium, visual growth / no growth; parameters: key: −: no growth; +: slight growth; ++: moderate growth; +++: heavy growth; ++++: very heavy growth; details: 25° C.
Experimental: The pH of the medium was adjusted to 6 with 1N NaOH. The medium was distributed in 50 ml amounts into 250 ml flasks and autoclaved at 121° C. for 20 minutes. The test fungus, Aspergillus niger, was grown on potato dextrose agar for 7-10 days. A spore/hyphal suspension of the fungus was prepared by washing down the spores/hyphae from the slant with sterile saline into a bottle containing 30 ml sterile saline and shaken. The chemicals were added to the sterile mineral-salts medium in the desired concentrations, and each flask was inoculated with a suspension of the fungal suspension to give a final fungal count of approximately 1×10^6 cfu/ml. The inoculated samples were incubated at 25° C. and inspected visually for growth or no growth at 7 and 14 days.

[2] = system: Aspergillus niger; test: Wet blue pieces dipped in active substance, exposed to airborne spores in petri-dish growth chambers; parameters: key to GROWTH Wk. 1 / GROWTH Wk. 2 / GROWTH Wk. 3 / GROWTH Wk. 4 / GROWTH Wk. 5 / GROWTH Wk. 6 / GROWTH Wk. 7: 0: no growth on surface; +: less than half of surface covered with mold; ++: about half of surface covered with mold; +++: about ¾ of surface covered with mold; ++++: the whole surface covered with mold; details: for performance against Aspergillus niger on wet blue compared with the controls: wet blue dipped in 0.5% or 0.25% (by wt) mixtures
Experimental: Sodium omadine was included among the substances tested, as a positive control. The test organism, Aspergillus niger, was grown on potato dextrose agar for 5-days in petri-dishes. The wet blue pieces were placed on top of pieces of bent glass rod, thereby preventing direct contact with the “lawn” of Aspergillus niger. Thus, exposure of the wet blue to Aspergillus niger was limited to airborne spores, simulating one of the most common modes of exposure experienced in practice. For each active substance and concentration studied, wet blue pieces were suspended both grain side up and flesh side up. A bottom half of a petri-dish was used as a cover to provide a growth chamber for each sample. These growth chambers were incubated at 25° C. and evaluated weekly to determine the degree of fungal infestation on the wet blue surfaces.

[3] = system: Penicillium sp.; test: Wet blue pieces dipped in active substance, mold exposure in petri-dishes, industrial isolate; parameters: key to GROWTH Wk. 1 / GROWTH Wk. 2 / GROWTH Wk. 3 / GROWTH Wk. 4 / GROWTH Wk. 5 / GROWTH Wk. 7 / GROWTH Wk. 8 / GROWTH Wk. 9: 0: no growth on surface; +: less than half of surface covered with mold; ++: about half of surface covered with mold; +++: about ¾ of surface covered with mold; ++++: the whole surface covered with mold
Experimental: One inch square pieces of wet blue that had not been previously treated with fungicide were dipped in either 0.5% or 0.25% (by wt) mixtures of each active substance in water. Sodium omadine was included among the substances tested, as a positive control. The test organism, Aspergillus niger, was grown on potato dextrose agar for 5-days in petri-dishes. The wet blue pieces were placed on top of pieces of bent glass rod, thereby preventing direct contact with the “lawn” of Aspergillus niger. Thus, exposure of the wet blue to Aspergillus niger was limited to airborne spores, simulating one of the most common modes of exposure experienced in practice. For each active substance and concentration studied, wet blue pieces were suspended both grain side up and flesh side up. A bottom half of a petri-dish was used as a cover to provide a growth chamber for each sample. These growth chambers were incubated at 25° C. and evaluated weekly to determine the degree of fungal infestation on the wet blue surfaces.
Some of the minimum risk fungicides identified above were further tested against an industrial isolate of Penicillium sp, as shown in Table 3. This particular “wild strain” of Penicillium was isolated from commercial wet blue that was seriously contaminated with mold. […] Once again, one inch square pieces of wet blue were dipped in mixtures of active substances in water—this time at 1% and 0.5% concentrations. The mold exposure was carried out in petri-dishes as in EXAMPLE 2, but with Penicillium sp. as the test organism.

CCC(=O)OCCc1ccccc1 [2-Phenylethyl propionate]
GROWTH 7-days ([1]; 1% by wt.): − | GROWTH 14-days ([1]; 1% by wt.): − | performance against Aspergillus niger on wet blue compared with the controls ([2]; petri-dishes): no better than the controls

O=C(O)CC(O)(CC(=O)O)C(=O)O [Citric acid]
GROWTH 7-days ([1]; 0.5% by wt.): − | GROWTH 14-days ([1]; 0.5% by wt.): − | GROWTH 7-days ([1]; 1% by wt.): − | GROWTH 14-days ([1]; 1% by wt.): −

C=CCc1ccc(O)c(OC)c1 [Eugenol]
GROWTH 7-days ([1]; 0.5% by wt.): − | GROWTH 14-days ([1]; 0.5% by wt.): − | GROWTH 7-days ([1]; 1% by wt.): − | GROWTH 14-days ([1]; 1% by wt.): − | performance against Aspergillus niger on wet blue compared with the controls ([2]; petri-dishes): no better than the controls

CC(C)=CCC/C(C)=C/CO [Geraniol]
GROWTH 7-days ([1]; 0.5% by wt.): − | GROWTH 14-days ([1]; 0.5% by wt.): − | GROWTH 7-days ([1]; 1% by wt.): − | GROWTH 14-days ([1]; 1% by wt.): − | performance against Aspergillus niger on wet blue compared with the controls ([2]; petri-dishes): no better than the controls

C/C=C/C=C/C(=O)[O-].[K+] [Potassium sorbate]
GROWTH 7-days ([1]; 0.5% by wt.): − | GROWTH 14-days ([1]; 0.5% by wt.): +++ | GROWTH 7-days ([1]; 1% by wt.): − | GROWTH 14-days ([1]; 1% by wt.): −

O=C([O-])c1ccccc1.[Na+] [Sodium benzoate]
GROWTH 7-days ([1]; 0.5% by wt.): ++ | GROWTH 7-days ([1]; 1% by wt.): +

CC(=O)c1c([O-])cc(C)oc1=O.[Na+] [Sodium dehydroacetate, reference compound]
GROWTH 7-days ([1]; 0.5% by wt.): − | GROWTH 14-days ([1]; 0.5% by wt.): − | GROWTH 7-days ([1]; 1% by wt.): − | GROWTH 14-days ([1]; 1% by wt.): −

CCCCCCCCCCCCOS(=O)(=O)[O-].[Na+] [Sodium lauryl sulfate]
GROWTH 7-days ([1]; 0.5% by wt.): − | GROWTH 14-days ([1]; 0.5% by wt.): − | GROWTH 7-days ([1]; 1% by wt.): − | GROWTH 14-days ([1]; 1% by wt.): − | GROWTH Wk. 1 ([2]; 0.25% (flesh)): 0 | GROWTH Wk. 2 ([2]; 0.25% (flesh)): 0 | GROWTH Wk. 3 ([2]; 0.25% (flesh)): 0 | GROWTH Wk. 4 ([2]; 0.25% (flesh)): 0 | GROWTH Wk. 5 ([2]; 0.25% (flesh)): 0 | GROWTH Wk. 6 ([2]; 0.25% (flesh)): 0 | GROWTH Wk. 7 ([2]; 0.25% (flesh)): ++ | GROWTH Wk. 1 ([2]; 0.25% (grain)): 0 | GROWTH Wk. 2 ([2]; 0.25% (grain)): 0 | GROWTH Wk. 3 ([2]; 0.25% (grain)): 0 | GROWTH Wk. 4 ([2]; 0.25% (grain)): 0 | GROWTH Wk. 5 ([2]; 0.25% (grain)): 0 | GROWTH Wk. 6 ([2]; 0.25% (grain)): 0 | GROWTH Wk. 7 ([2]; 0.25% (grain)): ++ | GROWTH Wk. 1 ([2]; 0.5% (flesh)): 0 | GROWTH Wk. 2 ([2]; 0.5% (flesh)): 0 | GROWTH Wk. 3 ([2]; 0.5% (flesh)): 0 | GROWTH Wk. 4 ([2]; 0.5% (flesh)): 0 | GROWTH Wk. 5 ([2]; 0.5% (flesh)): 0 | GROWTH Wk. 6 ([2]; 0.5% (flesh)): 0 | GROWTH Wk. 7 ([2]; 0.5% (flesh)): 0 | GROWTH Wk. 1 ([2]; 0.5% (grain)): 0 | GROWTH Wk. 2 ([2]; 0.5% (grain)): 0 | GROWTH Wk. 3 ([2]; 0.5% (grain)): 0 | GROWTH Wk. 4 ([2]; 0.5% (grain)): 0 | GROWTH Wk. 5 ([2]; 0.5% (grain)): 0 | GROWTH Wk. 6 ([2]; 0.5% (grain)): 0 | GROWTH Wk. 7 ([2]; 0.5% (grain)): + | duration of protection of wet blue ([2]; at the concentration tested, petri-dishes): six to seven | GROWTH Wk. 1 ([3]; 0.5% (flesh)): 0 | GROWTH Wk. 2 ([3]; 0.5% (flesh)): 0 | GROWTH Wk. 3 ([3]; 0.5% (flesh)): 0 | GROWTH Wk. 4 ([3]; 0.5% (flesh)): + | GROWTH Wk. 5 ([3]; 0.5% (flesh)): ++ | GROWTH Wk. 7 ([3]; 0.5% (flesh)): ++++ | GROWTH Wk. 8 ([3]; 0.5% (flesh)): ++++ | GROWTH Wk. 9 ([3]; 0.5% (flesh)): ++++ | GROWTH Wk. 1 ([3]; 0.5% (grain)): 0 | GROWTH Wk. 2 ([3]; 0.5% (grain)): 0 | GROWTH Wk. 3 ([3]; 0.5% (grain)): + | GROWTH Wk. 4 ([3]; 0.5% (grain)): ++++ | GROWTH Wk. 5 ([3]; 0.5% (grain)): ++++ | GROWTH Wk. 7 ([3]; 0.5% (grain)): ++++ | GROWTH Wk. 8 ([3]; 0.5% (grain)): ++++ | GROWTH Wk. 9 ([3]; 0.5% (grain)): ++++ | GROWTH Wk. 1 ([3]; 1% (flesh)): 0 | GROWTH Wk. 2 ([3]; 1% (flesh)): 0 | GROWTH Wk. 3 ([3]; 1% (flesh)): 0 | GROWTH Wk. 4 ([3]; 1% (flesh)): 0 | GROWTH Wk. 5 ([3]; 1% (flesh)): + | GROWTH Wk. 7 ([3]; 1% (flesh)): ++++ | GROWTH Wk. 8 ([3]; 1% (flesh)): ++++ | GROWTH Wk. 9 ([3]; 1% (flesh)): ++++ | GROWTH Wk. 1 ([3]; 1% (grain)): 0 | GROWTH Wk. 2 ([3]; 1% (grain)): 0 | GROWTH Wk. 3 ([3]; 1% (grain)): 0 | GROWTH Wk. 4 ([3]; 1% (grain)): 0 | GROWTH Wk. 5 ([3]; 1% (grain)): 0 | GROWTH Wk. 7 ([3]; 1% (grain)): 0 | GROWTH Wk. 8 ([3]; 1% (grain)): 0 | GROWTH Wk. 9 ([3]; 1% (grain)): 0 | resistance of treated wet blue compared with unprotected controls ([3]; wet blue dipped at 1% and 0.5%, Prosan 18 as positive control): substantially improved over the unprotected controls

[Na+].[O-][n+]1ccccc1[S-] [Sodium omadine, reference compound]
GROWTH Wk. 1 ([2]; 0.05% (flesh)): 0 | GROWTH Wk. 2 ([2]; 0.05% (flesh)): 0 | GROWTH Wk. 3 ([2]; 0.05% (flesh)): 0 | GROWTH Wk. 4 ([2]; 0.05% (flesh)): 0 | GROWTH Wk. 5 ([2]; 0.05% (flesh)): 0 | GROWTH Wk. 6 ([2]; 0.05% (flesh)): 0 | GROWTH Wk. 7 ([2]; 0.05% (flesh)): 0 | GROWTH Wk. 1 ([2]; 0.05% (grain)): 0 | GROWTH Wk. 2 ([2]; 0.05% (grain)): 0 | GROWTH Wk. 3 ([2]; 0.05% (grain)): 0 | GROWTH Wk. 4 ([2]; 0.05% (grain)): 0 | GROWTH Wk. 5 ([2]; 0.05% (grain)): 0 | GROWTH Wk. 6 ([2]; 0.05% (grain)): 0 | GROWTH Wk. 7 ([2]; 0.05% (grain)): 0

O=C([O-])c1ccccc1O.[Na+] [Sodium salicylate, reference compound]
GROWTH 7-days ([1]; 0.5% by wt.): ++++ | GROWTH 7-days ([1]; 1% by wt.): ++++
